Data as given in patent US12404232B2, “Compounds and compositions for intracellular delivery of therapeutic agents” (ModernaTX, Inc., priority 2015, dated 2025).

Assays:
rat = test: Clinical chemistry and hematology in rat after intravenous administration; format: in vivo; design: unit not given here; conditions: 2 mpk, 48 h post dose
Method: Sample formulations of nanoparticle compositions including different lipids were administered intravenously to rat at a dose of 2 mpk. The expression of various clinical markers was evaluated at 48 h post dose and compared to that induced by administration of MC3 formulations or phosphate buffered saline (PBS).
(§1) Table 19 summarizes the hEPO expression, IP-10 induction, liver and spleen levels, and alanine aminotransferase (ALT) and aspartate aminotransferase (AST) measured upon intravenous administration of formulations including Compounds 48, 49, and 50 to rat at 0.2 and 2 mpk and hEPO mRNA. hEPO concentrations were measured 6 hours after administration, while cytokine induction and liver and spleen levels were measured 48 hours after administration. hEPO and IP-10 concentrations are presented in pg/ml, while liver levels are provided in ng/g. ALT and AST levels are presented in international units.

rats [1] = test: Residual lipid levels in liver and spleen of rats (UPLC-MS quantification); format: in vivo, rat; conditions: rats, 2 mpk, 48 h; assuming 300 g rat and 15 g liver
Method: At 48 h liver tissue was harvested for lipid quantification. To pre-weighed tissues, Milli-Q water was added (900 μL water per 100 mg tissue). Tissues were homogenized using an Omni probe homogenizer until uniform. 50 μL of samples and matrix calibration standards were aliquoted into a 96-well plate. 50 μL of blank matrix for matrix blanks and control blanks were aliquoted. 400 μL IS spiking solution were manually added to all samples except matrix blanks. 400 μL of 50:50 ACN:IPA were manually added to matrix blanks. The plate was covered and the samples vortexed and centrifuged for 5 minutes at >3000 rpm. 200 μL of the samples were transferred into a clean 96-well plate for analysis. Samples were analyzed on a Waters Acquity UPLC using a Higgins Analytical Clipeus C8 column ([…], 30×2.1 mm) and a gradient of either 70-95% or 60-95% (Mobile Phase A: 5 mM ammonium formate in 50:50:1 H2O:MeOH:formic acid; Mobile Phase B: 5 mM ammonium formate in 100:1 MeOH:formic acid) over 1.3 min at 1.2 mL/min (column temperature 55° C.). Detection was based on electrospray ionization (ESI) in positive mode using a Sciex API5500 Mass Spectrometer.
The expression of hEPO in rats intravenously administered a nanoparticle composition at a dose of 0.2 mpk or 2.0 mpk was measured at 6 hours. Table 16 summarize the ratio of hEPO expression levels using various nanoparticle compositions as compared to the hEPO expression level using MC3 formulation and the lipid levels in the liver measured 48 hours after administration, as described above. Tables 17 and 18 summarize the lipid levels in the liver and spleen measured 48 hours after administration of Compounds 28, 33, 53, and 54. Liver and spleen levels represent the average values calculated for 3 rats in each group. As is shown in Tables 17 and 18, less than 10% of Compounds 28, 33, 53, and 54 remained in the liver after 48 hours, while greater than 60% of MC3 remained.
as §1
The expression of hEPO induced by intravenous administration to rats of nanoparticle compositions at various doses was measured at 2, 4, 6, 8, 24, and 48 hour time points. FIGS. 3-6 respectively summarize the hEPO expression measured upon intravenous administration of formulations including Compounds 26, 18, 25, and MC3 to rat at various doses. The lipid levels of Compound 26 in the liver after 48 hours were about 19%.
The expression of hEPO and lipid levels in the liver and spleen in rats intravenously administered a nanoparticle composition at a dose of 0.2 mpk was measured at various timepoints. Compounds 18 and 25 were selected for comparison with MC3. Lipids were formulated according to the standard MC3 formulation described above. Rats were administered intravenously a single 0.2 mpk dose and expression monitored at 0.25, 0.5, 1, 2, 4, 8, 24, and 48 hours after administration.

mice [2] = test: Luc expression (total flux) after intramuscular administration; format: in vivo; conditions: 6 hours after intramuscular administration, Luc mRNA and H10 mRNA
rats [3] = test: Cytokine induction (IP-10) in rats after intravenous administration; format: in vivo; conditions: rat, 6 hours after administration of hEPO nanoparticle compositions, 2.0 mpk
Method: The expression of hEPO and cytokine induction in rats intravenously administered a nanoparticle composition at a dose of 2.0 mpk was measured at 6 h.
as §1

mice [4] = test: Cytokine induction (IL-6, IP-10) in mice after intravenous administration; format: in vivo; design: IL-6 / IP-10: unit not given here; conditions: 0.5 mpk, 6 hours
Procedure, shortened: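 Nanoparticle compositions given intravenously to mice at 0.5 mpk; serum cytokine concentrations measured at 6 hours, with MC3 formulation and PBS as comparators.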

mice [5] = test: Luc expression (total flux) after intramuscular administration; format: in vivo; conditions: i.m., Luc, 6 h
[6] = Particle size and polydispersity index of nanoparticle compositions (Zetasizer Nano ZS); format: physicochemical; conditions: for PDI: nanoparticle composition 50:10:38.5:1.5 mol % (Table 1A); for Size (nm): nanoparticle composition lipid:DSPC:cholesterol:PEG-DMG 50:10:38.5:1.5 mol %, mRNA encoding Luc or hEPO (Table 1A)
Procedure, shortened: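 Particle size and PDI by Zetasizer Nano ZS dynamic light scattering in 1×PBS. Lipid nanoparticles carried mRNA (luciferase or hEPO) with ionizable lipid:DSPC:cholesterol:PEG-DMG at 50:10:38.5:1.5 mol %.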

[7] = Encapsulation of RNA by the nanoparticle composition (QUANT-IT RIBOGREEN RNA assay); format: physicochemical; conditions: nanoparticle composition 50:10:38.5:1.5 mol % (Table 1A)
From the text: The efficiency of encapsulation of a therapeutic and/or prophylactic describes the amount of therapeutic and/or prophylactic that is encapsulated or otherwise associated with a nanoparticle composition after preparation, relative to the initial amount provided. The encapsulation efficiency is desirably high (e.g., close to 100%). The encapsulation efficiency may be measured, for example, by comparing the amount of therapeutic and/or prophylactic in a solution containing the nanoparticle composition before and after breaking up the nanoparticle composition with one or more organic solvents or detergents. Fluorescence may be used to measure the amount of free therapeutic and/or prophylactic (e.g., RNA) in a solution. For the nanoparticle compositions described herein, the encapsulation efficiency of a therapeutic and/or prophylactic may be at least 50%, for example 50%, 55%, 60%, 65%, 70%, 75%, 80%, 85%, 90%, 91%, 92%, 93%, 94%, 95%, 96%, 97%, 98%, 99%, or 100%. In some embodiments, the encapsulation efficiency may be at least 80%. In certain embodiments, the encapsulation efficiency may be at least 90%.
For nanoparticle compositions including an RNA, a QUANT-IT™ RIBOGREEN® RNA assay (Invitrogen Corporation Carlsbad, CA) can be used to evaluate the encapsulation of an RNA by the nanoparticle composition. The samples are diluted to a concentration of approximately […] in a TE buffer solution (10 mM Tris-HCl, 1 mM EDTA, pH 7.5). 50 μL of the diluted samples are transferred to a polystyrene 96 well plate and either 50 μL of TE buffer or 50 μL of a 2% Triton X-100 solution is added to the wells. The plate is incubated at a temperature of 37° C. for 15 minutes. The RIBOGREEN® reagent is diluted 1:100 in TE buffer, and 100 μL of this solution is added to each well. The fluorescence intensity can be measured using a fluorescence plate reader (Wallac Victor 1420 Multilablel Counter; Perkin Elmer, Waltham, MA) at an excitation wavelength of, for example, about 480 nm and an emission wavelength of, for example, about 520 nm. The fluorescence values of the reagent blank are subtracted from that of each of the samples and the percentage of free RNA is determined by dividing the fluorescence intensity of the intact sample (without addition of Triton X-100) by the fluorescence value of the disrupted sample (caused by the addition of Triton X-100).
Initial studies were performed to compare the delivery efficiency of nanoparticle compositions including various compounds according to Formula (I), (IA), (II), (IIa), (IIb), (IIc), (IId) or (IIe). The cationic lipid MC3 is a current standard in the art. Accordingly, the standard MC3 formulation including about 50 mol % MC3, about 10 mol % DSPC, about 38.5 mol % cholesterol, and about 1.5 mol % PEG-DMG was used as a basis for this study. Nanoparticle compositions including DSPC as a phospholipid, cholesterol as a structural lipid, PEG-DMG as a PEG lipid, an RNA, and a compound according to Formula (I), (IA), (II), (IIa), (IIb), (IIc), (IId) or (IIe) selected from Compounds 1-159, 168-170, and 173-175 were prepared according to or via methods similar to those described in Examples 1 and 2. The ratios of the lipids were 50:10:38.5:1.5 mol % for the lipid according to Formula (I), (IA), (II), (IIa), (IIb), (IIc), (IId) or (IIe):DSPC:cholesterol:PEG-DMG. The RNA used was an mRNA encoding G5 luciferase (Luc) or G5 hEPO. Tables 1A-1B summarize the content and characteristics of the formulations. […]

Row | Structure (SMILES) | Alanine aminotransferase (Concentration) (rat) | Aspartate aminotransferase (Concentration) (rat) | Lymphocytes (Concentration) (rat) | Monocytes (Concentration) (rat) | Neutrophils (Concentration) (rat) | % Lipid Remaining in liver, 48 h* 2 mpk (rats [1]) [%] | Total flux (p/s) 0.001 mpk Dose (mice [2]) [p/s] | Total flux (p/s) 0.01 mpk Dose (mice [2]) [p/s] | IP-10 (rats [3]) [pg/mL] | IL-6 (mice [4]) | IP-10 (mice [4]) | i.m. Lipid/MC3 0.01 mpk, Luc, 6h (mice [5]) | PDI [6] | Size (nm) [6] [nm] | EE (%) [7] [%]
1 | CCCCCCCCCN(CCO)CCCCCCCC(=O)OC(CCCCCCCC)CCCCCCCC [Compound 3, Heptadecan-9-yl 8-((2-hydroxyethyl)(nonyl)amino)octanoate] | 53.5 | 87.5 | 12051 | 2103 | 3388.5 | 14 | 3.58E+06 | 4.95E+07 | 542 | – | – | – | – | – | –
2 | CCCCCC/C=C\COC(=O)CCCCCCCN(CCO)CCCCCCCC(=O)OC(CCCCCCCC)CCCCCCCC [Compound 24, Heptadecan-9-yl (Z)-8_((2-hydroxyethyl) (8-(non-2-en-1-yloxy)-8-oxooctyl)amino)octanoate] | 51.5 | 90 | 14100 | 1834 | 1790.5 | 0.016 | 3.78E+06 | 3.97E+07 | 323.5 | 163.53 | 1172.93 | – | – | – | –
3 | CCCCCCCCCOC(=O)CCCCCCCN(CCO)CCCCCCCOC(=O)C(CCCCCCCC)CCCCCCCC [Compound 30, 7-((2-Hydroxyethyl)(8-(nonyloxy)-8-oxooctyl)amino)heptyl 2-octyldecanoate] | 56 | 95 | 10408.5 | 877 | 3195 | <0.01 | 2.47E+06 | 3.77E+07 | 214.5 | 152.51 | 1638.77 | – | – | – | –
4 | CCCCCCCCCOC(=O)CCCCCCCN(CCCCCCCC(=O)OC(CCCCCCCC)CCCCCCCC)CCCNc1c(N(C)C)c(=O)c1=O [Compound 169, Heptadecan-9-yl 8-((3-((2-(dimethylamino)-3,4-dioxocyclobut-1-en-1-yl)amino)propyl)(8-(nonyloxy)-8-oxooctyl)amino)octanoate] | – | – | – | – | – | – | – | – | – | – | – | 3.3 | 0.18 | 75.4 | –
5 | CCCCCCCCCOC(=O)CCCCCCCN(CCCCCCCC(=O)OC(CCCCCCCC)CCCCCCCC)CCCN/C(=C/[N+](=O)[O-])NC [Compound 170, Heptadecan-9-yl (E)-8-((3-((1-(methylamino)-2-nitrovinyl)amino)propyl)(8-(nonyloxy)-8-oxooctyl)amino)octanoate] | – | – | – | – | – | – | – | – | – | – | – | 5.3 | 0.12 | 71.7 | –
6 | CCCCCCCCCOC(=O)CCCCCCCN(CCCCCCCC(=O)OC(CCCCCCCC)CCCCCCCC)CCCN1C(=O)CNC1=O [Compound 174, Heptadecan-9-yl 8-((3-(2,5-dioxoimidazolidin-1-yl)propyl)(8-(nonyloxy)-8-oxooctyl)amino)octanoate] | – | – | – | – | – | – | – | – | – | – | – | 0.2 | 0.12 | 61.4 | –
7 | CCCCCCCCCOC(=O)CCCCCCCN(CCCCCCCC(=O)OC(CCCCCCCC)CCCCCCCC)CCCOC(=O)NC [Compound 175, Heptadecan-9-yl 8-((3-((methylcarbamoyl)oxy)propyl)(8-(nonyloxy)-8-oxooctyl)amino)octanoate] | – | – | – | – | – | – | – | – | – | – | – | 0.1 | 0.2 | 65.4 | 93.23
